Results published in patent US20110136762A1, “FUNGICIDAL PYRIDAZINES” (E.I. Du Pont de Nemours and Company, priority 2008, published 2011).
Marks after values point to notes of the source that are not given here.

Assays:
Format in all cases: in vivo
Settings in all cases: 100 = 100% disease control, 0 = no disease control relative to controls
[1] = system: Puccinia recondita f. sp. tritici; assay: Test B: wheat leaf rust, preventive spray on wheat seedlings, visual disease rating
From the text: General protocol for preparing test suspensions for Tests A-F: […] The resulting test suspensions were then used in Tests A-F. The test suspensions were sprayed to the point of run-off on the test plants. All results are for 200 ppm (equivalent to a rate of 500 g/ha) except where followed by “*” which indicates 40 ppm. The test suspension was sprayed to the point of run-off on wheat seedlings. The following day the seedlings were inoculated with a spore suspension of Puccinia recondita f. sp. tritici (the causal agent of wheat leaf rust) and incubated in a saturated atmosphere at 20° C. for 24 h, and then moved to a growth chamber at 20° C. for 7 days, after which time visual disease ratings were made. […] A dash (-) indicates no test results. All results are for 200 ppm except where followed by “*”, which indicates 40 ppm.

[2] = system: Erysiphe graminis; assay: Test A: wheat powdery mildew, preventive spray on wheat seedlings, visual disease rating
From the text: General protocol for preparing test suspensions for Tests A-F: […] The resulting test suspensions were then used in Tests A-F. The test suspensions were sprayed to the point of run-off on the test plants. All results are for 200 ppm (equivalent to a rate of 500 g/ha) except where followed by “*” which indicates 40 ppm. The test suspension was sprayed to the point of run-off on wheat seedlings. The following day the seedlings were inoculated with a spore dust of Erysiphe graminis, (the causal agent of wheat powdery mildew) and incubated in a growth chamber at 20° C. for 8 days, after which time visual disease ratings were made. […] A dash (-) indicates no test results. All results are for 200 ppm except where followed by “*”, which indicates 40 ppm.

[3] = system: Septoria tritici; assay: Test C: wheat leaf blotch, preventive spray on wheat seedlings, visual disease rating
From the text: General protocol for preparing test suspensions for Tests A-F: […] The resulting test suspensions were then used in Tests A-F. The test suspensions were sprayed to the point of run-off on the test plants. All results are for 200 ppm (equivalent to a rate of 500 g/ha) except where followed by “*” which indicates 40 ppm. The test suspension was sprayed to the point of run-off on wheat seedlings. The following day the seedlings were inoculated with a spore suspension of Septoria tritici (the causal agent of wheat leaf blotch) and incubated in saturated atmosphere at 20° C. for 48 h, and moved to a growth chamber at 20° C. for 19 additional days, after which time visual disease ratings were made. […] A dash (-) indicates no test results. All results are for 200 ppm except where followed by “*”, which indicates 40 ppm.

[4] = system: Alternaria solani; assay: Test E: tomato early blight, preventive spray on tomato seedlings, visual disease rating
From the text: General protocol for preparing test suspensions for Tests A-F: […] The resulting test suspensions were then used in Tests A-F. The test suspensions were sprayed to the point of run-off on the test plants. All results are for 200 ppm (equivalent to a rate of 500 g/ha) except where followed by “*” which indicates 40 ppm. The test suspension was sprayed to the point of run-off on tomato seedlings. […] A dash (-) indicates no test results. All results are for 200 ppm except where followed by “*”, which indicates 40 ppm.

[5] = system: Septoria nodorum; assay: Test D: wheat glume blotch, preventive spray on wheat seedlings, visual disease rating
From the text: General protocol for preparing test suspensions for Tests A-F: […] The resulting test suspensions were then used in Tests A-F. The test suspensions were sprayed to the point of run-off on the test plants. All results are for 200 ppm (equivalent to a rate of 500 g/ha) except where followed by “*” which indicates 40 ppm. The test suspension was sprayed to the point of run-off on wheat seedlings. The following day the seedlings were inoculated with a spore suspension of Septoria nodorum (the causal agent of wheat glume blotch) and incubated in a saturated atmosphere at 20° C. for 48 h, and then moved to a growth chamber at 20° C. for 7 days, after which time visual disease ratings were made. […] A dash (-) indicates no test results. All results are for 200 ppm except where followed by “*”, which indicates 40 ppm.

[6] = system: Botrytis cinerea; assay: Test F: tomato Botrytis, preventive spray on tomato seedlings, visual disease rating
From the text: General protocol for preparing test suspensions for Tests A-F: […] The resulting test suspensions were then used in Tests A-F. The test suspensions were sprayed to the point of run-off on the test plants. All results are for 200 ppm (equivalent to a rate of 500 g/ha) except where followed by “*” which indicates 40 ppm. The test suspension was sprayed to the point of run-off on tomato seedlings. The following day the seedlings were inoculated with a spore suspension of Botrytis cinerea (the causal agent of tomato Botrytis) and incubated in saturated atmosphere at 20° C. for 48 h, and then moved to a growth chamber at 24° C. for 3 days, after which time visual disease ratings were made. […] A dash (-) indicates no test results. All results are for 200 ppm except where followed by “*”, which indicates 40 ppm.

[7] = Blumeria graminis, 192 h, 200 ppm
[8] = Zymoseptoria tritici, 504 h, 200 ppm
[9] = Parastagonospora nodorum, 200 ppm

Structure (SMILES)	pest or weed control at 200 ppm ([1]; 192 h, 200 ppm)	pest or weed control at 200 ppm [2, 7]	pest or weed control at 200 ppm [3, 8]	pest or weed control at 200 ppm ([4]; Alternaria solani, 200 ppm)	pest or weed control at 200 ppm [5, 9]	pest or weed control at 200 ppm ([6]; Botrytis cinerea, 200 ppm)	also measured
COc1cc(OC)cc(-c2c(-c3ccccc3F)nnc(Cl)c2-c2ccc(F)cc2F)c1 [Compound 18, 3-chloro-4-(2,4-difluorophenyl)-5-(3,5-dimethoxyphenyl)-6-(2-fluorophenyl)pyridazine]	100%	95%	98%	100%	100%	95%	–
C=C(C)c1nnc(C)c(-c2ccc(OC)cc2)c1-c1cc(OC)cc(OC)c1 [Compound 19]	–	–	–	–	–	–	Test B rating (disease control, wheat leaf rust) ([1]; 200 ppm): 98%; Test A rating (disease control, wheat powdery mildew) ([2]; 200 ppm): 61%; Test C rating (disease control, wheat leaf blotch) ([3]; 200 ppm): 98%; Test E rating (disease control, tomato early blight) ([4]; 200 ppm): 100%; Test D rating (disease control, wheat glume blotch) ([5]; 200 ppm): 0%; Test F rating (disease control, tomato Botrytis) ([6]; 200 ppm): 98%
C=C(C)c1nnc(C)c(-c2ccc(F)cc2F)c1-c1cc(OC)cc(OC)c1 [Compound 20]	–	–	–	–	–	–	Test B rating (disease control, wheat leaf rust) ([1]; 200 ppm): 100%; Test A rating (disease control, wheat powdery mildew) ([2]; 200 ppm): 96%; Test C rating (disease control, wheat leaf blotch) ([3]; 200 ppm): 96%; Test E rating (disease control, tomato early blight) ([4]; 200 ppm): 100%; Test D rating (disease control, wheat glume blotch) ([5]; 200 ppm): 0%; Test F rating (disease control, tomato Botrytis) ([6]; 200 ppm): 99%
C=C(C)c1nnc(C)c(-c2c(F)cccc2F)c1-c1cc(OC)cc(OC)c1 [Compound 21]	–	–	–	–	–	–	Test B rating (disease control, wheat leaf rust) ([1]; 40 ppm (marked *)): 99* %; Test A rating (disease control, wheat powdery mildew) ([2]; 40 ppm (marked *)): 94* %; Test C rating (disease control, wheat leaf blotch) ([3]; 40 ppm (marked *)): 98* %; Test E rating (disease control, tomato early blight) ([4]; 40 ppm (marked *)): 98* %; Test D rating (disease control, wheat glume blotch) ([5]; 40 ppm (marked *)): 0* %; Test F rating (disease control, tomato Botrytis) ([6]; 40 ppm (marked *)): 98* %
COc1cc(OC)cc(-c2c(-c3ccccc3F)nnc(C)c2-c2c(F)cccc2F)c1 [Compound 22]	–	–	–	–	–	–	Test B rating (disease control, wheat leaf rust) ([1]; 40 ppm (marked *)): 100* %; Test A rating (disease control, wheat powdery mildew) ([2]; 40 ppm (marked *)): 99* %; Test C rating (disease control, wheat leaf blotch) ([3]; 40 ppm (marked *)): 97* %; Test E rating (disease control, tomato early blight) ([4]; 40 ppm (marked *)): 100* %; Test D rating (disease control, wheat glume blotch) ([5]; 40 ppm (marked *)): 84* %; Test F rating (disease control, tomato Botrytis) ([6]; 40 ppm (marked *)): 95* %
Cc1nnc(-c2ccccc2F)c(-c2ccc(Cl)cc2)c1-c1c(F)cc(F)cc1F [Compound 23]	–	–	–	–	–	–	Test B rating (disease control, wheat leaf rust) ([1]; 200 ppm): 99%; Test A rating (disease control, wheat powdery mildew) ([2]; 200 ppm): 99%; Test C rating (disease control, wheat leaf blotch) ([3]; 200 ppm): 97%; Test E rating (disease control, tomato early blight) ([4]; 200 ppm): 96%; Test D rating (disease control, wheat glume blotch) ([5]; 200 ppm): 0%; Test F rating (disease control, tomato Botrytis) ([6]; 200 ppm): 86%
COc1cc(OC)cc(-c2c(-c3ccccc3F)nnc(C)c2-c2c(F)cc(F)cc2F)c1 [Compound 24, 4-(3,5-dimethoxyphenyl)-3-(2-fluorophenyl)-6-methyl-5-(2,4,6-trifluorophenyl)pyridazine]	100%	100%	96%	100%	100%	94%	–
Cc1nnc(-c2ccccc2F)c(-c2cccc(F)c2)c1-c1c(F)cc(F)cc1F [Compound 25, 3-(2-fluorophenyl)-4-(3-fluorophenyl)-6-methyl-5-(2,4,6-trifluorophenyl)pyridazine]	100%	99%	96%	100%	100%	98%	–
COc1cc(OC)cc(-c2c(-c3ccccc3F)nnc(OC)c2-c2c(F)cc(F)cc2F)c1 [Compound 26, 4-(3,5-dimethoxyphenyl)-3-(2-fluorophenyl)-6-methoxy-5-(2,4,6-trifluorophenyl)pyridazine]	100%	90%	99%	95%	100%	99%	–
COc1cc(OC)cc(-c2c(-c3cc(F)c(F)cc3F)cnnc2-c2ccccc2F)c1 [Compound 27, 4-(3,5-dimethoxyphenyl)-3-(2-fluorophenyl)-5-(2,4,5-trifluorophenyl)pyridazine]	100%	89%	99%	99%	84%	100%	–
COc1cc(OC)cc(-c2c(-c3ccccc3F)nnc(C)c2-c2c(F)cc(OC)cc2F)c1 [Compound 28, 4-(2,6-difluoro-4-methoxyphenyl)-5-(3,5-dimethoxyphenyl)-6-(2-fluorophenyl)-3-methylpyridazine]	–	–	–	–	–	–	pest or weed control at 40 ppm ([1]; 192 h, 40 ppm (marked *)): 100%; pest or weed control at 40 ppm ([2]; Blumeria graminis, 192 h, 40 ppm (marked *)): 85%; pest or weed control at 40 ppm ([3]; Zymoseptoria tritici, 504 h, 40 ppm (marked *)): 97%; pest or weed control at 40 ppm ([4]; Alternaria solani, 40 ppm (marked *)): 100%; pest or weed control at 40 ppm ([5]; Parastagonospora nodorum, 40 ppm (marked *)): 100%; pest or weed control at 40 ppm ([6]; Botrytis cinerea, 40 ppm (marked *)): 100%
COc1cc(OC)cc(-c2c(-c3ccccc3F)nnc(C)c2-c2c(F)cc(OCCCN(C)C)cc2F)c1 [Compound 29, 3-[4-[5-(3,5-dimethoxyphenyl)-6-(2-fluorophenyl)-3-methyl-4-pyridazinyl]-3,5-difluorophenoxy]-N,N-dimethyl-1-propanamine]	100%	92%	98%	99%	92%	99%	–
CNCCCOc1cc(F)c(-c2c(C)nnc(-c3ccccc3F)c2-c2cc(OC)cc(OC)c2)c(F)c1 [Compound 30, 3-[4-[5-(3,5-dimethoxyphenyl)-6-(2-fluorophenyl)-3-methyl-4-pyridazinyl]-3,5-difluorophenoxy]-N-methyl-1-propanamine]	100%	89%	99%	98%	98%	100%	–
